In ChEMBL document CHEMBL1201862, “PubChem BioAssay data set” (2004):
Calls of active or inactive are those of the source.

What was measured:
[1] = A cytotoxicity screen of small molecule inhibitors of the PhoP region in Salmonella typhi identified in the primary screen. [Related pubchem assays: 1850, 1864, 1985 ]; format: functional
[2] = target: Cytochrome P450 2D6 (Homo sapiens, UniProt P10635);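 further: CYP2D6 member of a cytochrome P450 panel assay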
[3] = target: Peroxisome proliferator-activated receptor gamma/Nuclear receptor corepressor 2 (Homo sapiens, UniProt P37231+Q9Y618); test: Counterscreen for NR2E3 inverse agonists: TR-FRET-based biochemical high throughput dose response assay to identify inverse agonists of the interaction between peroxisome proliferator-activated receptor gamma (PPARg) and nuclear receptor co-repressor 2 (NCOR2).; format: functional
Peroxisome proliferator-activated receptor gamma/Nuclear receptor corepressor 2, sequence (P37231 whole entry): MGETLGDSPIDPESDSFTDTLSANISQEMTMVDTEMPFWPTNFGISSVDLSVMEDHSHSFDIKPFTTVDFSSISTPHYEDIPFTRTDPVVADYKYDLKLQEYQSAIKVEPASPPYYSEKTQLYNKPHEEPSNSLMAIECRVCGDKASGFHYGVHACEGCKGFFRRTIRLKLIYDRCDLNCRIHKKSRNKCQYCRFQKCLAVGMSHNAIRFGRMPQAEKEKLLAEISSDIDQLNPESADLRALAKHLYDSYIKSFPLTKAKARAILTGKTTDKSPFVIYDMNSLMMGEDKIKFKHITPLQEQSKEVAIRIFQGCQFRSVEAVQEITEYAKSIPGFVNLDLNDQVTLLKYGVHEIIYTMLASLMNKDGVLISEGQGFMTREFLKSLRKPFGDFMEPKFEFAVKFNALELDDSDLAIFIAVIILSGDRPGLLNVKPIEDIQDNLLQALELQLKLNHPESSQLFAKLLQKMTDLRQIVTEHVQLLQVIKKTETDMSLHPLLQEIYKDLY
Peroxisome proliferator-activated receptor gamma/Nuclear receptor corepressor 2, sequence (Q9Y618 whole entry): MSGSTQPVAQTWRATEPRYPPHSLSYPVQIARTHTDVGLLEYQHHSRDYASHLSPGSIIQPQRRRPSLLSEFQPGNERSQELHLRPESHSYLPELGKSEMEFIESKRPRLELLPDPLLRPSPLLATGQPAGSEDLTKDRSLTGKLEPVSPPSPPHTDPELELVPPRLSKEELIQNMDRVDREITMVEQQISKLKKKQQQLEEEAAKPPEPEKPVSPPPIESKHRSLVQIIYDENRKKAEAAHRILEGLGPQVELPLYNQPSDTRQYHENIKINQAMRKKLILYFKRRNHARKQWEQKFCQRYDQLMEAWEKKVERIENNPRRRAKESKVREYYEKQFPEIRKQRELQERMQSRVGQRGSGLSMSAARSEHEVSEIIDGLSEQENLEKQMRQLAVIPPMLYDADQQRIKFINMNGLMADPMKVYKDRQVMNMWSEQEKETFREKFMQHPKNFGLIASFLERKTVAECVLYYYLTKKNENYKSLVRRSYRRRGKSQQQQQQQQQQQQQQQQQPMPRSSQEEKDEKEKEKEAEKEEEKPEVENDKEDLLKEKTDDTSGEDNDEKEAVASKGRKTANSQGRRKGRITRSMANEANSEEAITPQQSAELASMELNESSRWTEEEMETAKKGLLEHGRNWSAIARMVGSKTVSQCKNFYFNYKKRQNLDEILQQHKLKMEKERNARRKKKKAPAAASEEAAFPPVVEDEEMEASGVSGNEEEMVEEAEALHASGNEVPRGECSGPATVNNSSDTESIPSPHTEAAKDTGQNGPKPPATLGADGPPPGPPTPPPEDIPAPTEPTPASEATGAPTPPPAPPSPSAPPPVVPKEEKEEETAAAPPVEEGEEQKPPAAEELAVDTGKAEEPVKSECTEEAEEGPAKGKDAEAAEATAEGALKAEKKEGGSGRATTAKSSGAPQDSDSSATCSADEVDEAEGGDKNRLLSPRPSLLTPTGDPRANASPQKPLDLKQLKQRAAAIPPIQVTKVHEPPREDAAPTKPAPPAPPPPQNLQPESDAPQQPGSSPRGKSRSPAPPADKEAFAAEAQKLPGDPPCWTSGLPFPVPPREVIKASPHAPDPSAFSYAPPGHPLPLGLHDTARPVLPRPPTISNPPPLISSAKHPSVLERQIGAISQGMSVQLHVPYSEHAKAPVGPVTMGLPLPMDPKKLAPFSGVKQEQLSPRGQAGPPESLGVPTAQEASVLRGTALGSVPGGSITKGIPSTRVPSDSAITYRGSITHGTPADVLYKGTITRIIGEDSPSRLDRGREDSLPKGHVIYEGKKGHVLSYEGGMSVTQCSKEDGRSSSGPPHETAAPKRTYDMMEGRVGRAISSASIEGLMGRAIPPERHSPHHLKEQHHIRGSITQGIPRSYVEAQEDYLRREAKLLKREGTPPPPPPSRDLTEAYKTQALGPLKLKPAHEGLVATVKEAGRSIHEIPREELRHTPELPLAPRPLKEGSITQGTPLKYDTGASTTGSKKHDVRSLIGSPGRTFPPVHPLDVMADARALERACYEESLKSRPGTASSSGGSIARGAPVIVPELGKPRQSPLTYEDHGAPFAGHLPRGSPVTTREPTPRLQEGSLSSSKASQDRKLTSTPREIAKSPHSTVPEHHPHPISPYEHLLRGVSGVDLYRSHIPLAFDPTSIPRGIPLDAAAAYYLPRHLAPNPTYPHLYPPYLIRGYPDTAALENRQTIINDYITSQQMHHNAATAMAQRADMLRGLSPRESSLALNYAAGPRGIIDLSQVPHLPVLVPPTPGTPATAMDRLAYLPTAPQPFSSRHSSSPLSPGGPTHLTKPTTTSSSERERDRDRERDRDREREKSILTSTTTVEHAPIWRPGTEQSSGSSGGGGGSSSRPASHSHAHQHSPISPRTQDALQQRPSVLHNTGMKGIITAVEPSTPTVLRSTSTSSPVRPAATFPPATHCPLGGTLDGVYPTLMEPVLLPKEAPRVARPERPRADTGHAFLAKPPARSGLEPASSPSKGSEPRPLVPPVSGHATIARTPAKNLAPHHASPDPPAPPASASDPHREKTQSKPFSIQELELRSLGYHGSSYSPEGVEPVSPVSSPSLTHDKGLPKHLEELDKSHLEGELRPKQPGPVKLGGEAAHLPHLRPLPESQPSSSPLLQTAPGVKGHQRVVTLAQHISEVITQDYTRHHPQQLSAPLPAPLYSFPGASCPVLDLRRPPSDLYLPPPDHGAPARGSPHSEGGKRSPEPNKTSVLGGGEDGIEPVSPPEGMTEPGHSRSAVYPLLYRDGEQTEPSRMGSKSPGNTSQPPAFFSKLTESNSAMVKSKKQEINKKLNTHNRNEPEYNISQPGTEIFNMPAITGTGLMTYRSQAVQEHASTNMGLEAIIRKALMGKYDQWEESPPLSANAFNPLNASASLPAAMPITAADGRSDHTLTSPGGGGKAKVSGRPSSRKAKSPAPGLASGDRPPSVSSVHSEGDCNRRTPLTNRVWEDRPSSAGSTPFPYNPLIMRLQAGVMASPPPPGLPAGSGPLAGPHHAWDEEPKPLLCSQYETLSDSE

[4] = target: Photoreceptor-specific nuclear receptor (Homo sapiens, UniProt Q9Y5X4); test: ligands suppressing NR2E3 nuclear receptor activity – biochemical, TR-FRET, dose response (AID 463256); format: functional
Photoreceptor-specific nuclear receptor, sequence (Q9Y5X4 whole entry): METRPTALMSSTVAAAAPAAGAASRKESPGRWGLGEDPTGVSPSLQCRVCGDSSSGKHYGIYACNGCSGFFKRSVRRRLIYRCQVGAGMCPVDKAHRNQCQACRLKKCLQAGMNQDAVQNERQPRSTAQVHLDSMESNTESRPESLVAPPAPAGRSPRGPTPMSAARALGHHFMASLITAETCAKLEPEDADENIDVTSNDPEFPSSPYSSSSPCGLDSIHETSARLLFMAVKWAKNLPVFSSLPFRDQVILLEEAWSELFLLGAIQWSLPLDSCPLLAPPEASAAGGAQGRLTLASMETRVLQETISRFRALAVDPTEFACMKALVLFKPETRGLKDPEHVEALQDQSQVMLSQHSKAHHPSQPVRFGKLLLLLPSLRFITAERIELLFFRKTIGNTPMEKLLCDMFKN

[5] = Trypanosoma cruzi growth suppression in host cells – NIH3T3 host cells, beta-gal luminescence, confirmation (AID 2044); format: functional, cell-based;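 further: intracellular parasites grown in NIH/3T3 mouse fibroblasts as host cells; luminescent beta-galactosidase reporter signal from transgenic T. cruzi replicating inside host cells; inhibitors lower the luminescence signal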
[6] = NIH3T3 cell viability loss – ATP luminescence, mouse fibroblasts, counter-screen, dose response (AID 2010); format: functional, cell-based;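 further: cells exposed to compound for about 90 hours before reading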
[7] = target: Induced myeloid leukemia cell differentiation protein Mcl-1 (Homo sapiens, UniProt Q07820); format: functional
[8] = target: Cytochrome P450 2C19 (Homo sapiens, UniProt P33261); test: Cytochrome panel assay with activity outcomes. Panel member name: p450-cyp2c19 Compounds with AC50 equal or less than 10 uM are considered active; format: functional; conditions: read-out: AC50
Cytochrome P450 2C19, sequence (P33261 whole entry): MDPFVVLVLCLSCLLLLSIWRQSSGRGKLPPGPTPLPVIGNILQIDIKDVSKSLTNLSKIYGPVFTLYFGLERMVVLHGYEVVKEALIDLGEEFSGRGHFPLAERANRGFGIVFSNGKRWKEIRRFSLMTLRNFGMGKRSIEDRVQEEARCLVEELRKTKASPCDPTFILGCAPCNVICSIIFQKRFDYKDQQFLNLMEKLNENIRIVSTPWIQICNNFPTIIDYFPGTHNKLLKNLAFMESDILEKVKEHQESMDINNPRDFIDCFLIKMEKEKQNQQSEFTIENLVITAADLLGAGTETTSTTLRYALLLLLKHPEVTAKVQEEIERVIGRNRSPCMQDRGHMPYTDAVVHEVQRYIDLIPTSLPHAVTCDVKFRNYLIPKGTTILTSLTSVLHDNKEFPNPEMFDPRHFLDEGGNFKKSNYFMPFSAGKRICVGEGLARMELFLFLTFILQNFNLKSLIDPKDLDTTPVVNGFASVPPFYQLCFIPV

[9] = target: Trypsin (Sus scrofa, UniProt P00761); test: trypsin protease activity blockade – biochemical, quenched peptide fluorescence, cherry-pick, selectivity assay for Rce1 protease inhibitor project, dose response (AID 488789)
Trypsin, sequence (P00761 whole entry): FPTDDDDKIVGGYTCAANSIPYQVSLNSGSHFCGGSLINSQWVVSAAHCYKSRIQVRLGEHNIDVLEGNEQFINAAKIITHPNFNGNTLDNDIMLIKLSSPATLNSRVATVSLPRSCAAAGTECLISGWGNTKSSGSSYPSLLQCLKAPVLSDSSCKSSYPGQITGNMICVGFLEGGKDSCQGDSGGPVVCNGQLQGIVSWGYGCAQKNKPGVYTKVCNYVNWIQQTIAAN

[10] = target: FAD-linked sulfhydryl oxidase ALR (Homo sapiens, UniProt P55789); test: ALR-catalysed DTT oxidation blockers – biochemical, H2O2 detection, luminescence, cherry-pick, dose response (AID 493248)
FAD-linked sulfhydryl oxidase ALR, sequence (P55789 whole entry): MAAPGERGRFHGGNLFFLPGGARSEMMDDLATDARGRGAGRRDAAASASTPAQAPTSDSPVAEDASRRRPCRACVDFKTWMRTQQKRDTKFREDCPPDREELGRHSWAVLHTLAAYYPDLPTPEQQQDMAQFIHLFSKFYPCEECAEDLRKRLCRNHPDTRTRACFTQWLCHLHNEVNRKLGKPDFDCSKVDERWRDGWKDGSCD

[11] = Luminescence Cell-Based Dose Response to Identify Activators of 5'UTR Stem-Loop Driven Prion Protein mRNA Translation in H4-C Neuroglioblastoma Cells. [Related pubchem assays: 1829 (Project Summary), 1814 (Primary HTS)]; format: functional
[12] = Luminescence Cell-Based Dose Response HTS to Identify Activators of Luciferase Translation or Activity in H4 […] Cells. [Related pubchem assays: 1829 (Project Summary), 1814 (Primary HTS)]; format: functional
[13] = system: H4; test: Luminescence Cell-Based Dose Response HTS to Identify Activators of 5'UTR Stem-Loop Driven Prion Protein mRNA Translation in H4 Neuroglioblastoma Cells. [Related pubchem assays: 1829 (Project Summary), 1814 (Primary HTS)]; format: functional; conditions: Homo sapiens
[14] = Luminescence Cell-Based Dose Response to Identify Activators of Luciferase Translation or Activity in H4-C Neuroglioblastoma Cells. [Related pubchem assays: 1829 (Project Summary), 1814 (Primary HTS)]; format: functional
[15] = Luminescence Cell-Based Dose Confirmation to Identify Activators of 5'UTR Stem-Loop Driven Alpha-Synuclein mRNA Translation in H4 Neuroglioblastoma Cells. [Related pubchem assays: 1829 (Project Summary), 1814 (Primary HTS)]; format: functional

Cytochrome P450 2D6, sequence (P10635 whole entry): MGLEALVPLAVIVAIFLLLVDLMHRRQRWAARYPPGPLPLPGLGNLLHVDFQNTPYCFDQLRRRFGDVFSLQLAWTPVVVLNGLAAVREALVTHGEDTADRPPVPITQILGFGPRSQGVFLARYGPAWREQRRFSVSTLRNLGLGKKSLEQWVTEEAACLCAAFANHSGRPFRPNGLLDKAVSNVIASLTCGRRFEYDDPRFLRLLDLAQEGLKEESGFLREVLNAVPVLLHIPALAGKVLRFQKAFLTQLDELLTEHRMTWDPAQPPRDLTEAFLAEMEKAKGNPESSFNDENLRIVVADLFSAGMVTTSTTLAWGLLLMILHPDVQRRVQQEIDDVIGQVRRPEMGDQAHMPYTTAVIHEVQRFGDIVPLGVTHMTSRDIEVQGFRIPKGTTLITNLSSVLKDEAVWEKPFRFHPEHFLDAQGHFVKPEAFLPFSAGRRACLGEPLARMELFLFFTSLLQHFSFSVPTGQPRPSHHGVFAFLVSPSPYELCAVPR

SMILES: CN(C)C1C(=O)C(C(N)=O)=C(O)C2(O)C(O)=C3C(=O)c4c(O)cccc4C(C)(O)C3CC12 (configuration not stated)
- EC50 [1]: > 50 µM (active)

SMILES: O=S(=O)(O)c1ccc(/N=N\c2ccccc2)cc1
- AC50 [2]: inconclusive

SMILES: O=C(Nc1ccnc(-c2cccnc2)n1)c1ccc(Cl)cc1
- IC50 [3]: 5.27 µM (active)
- IC50 [4]: 5.23 µM (active)

SMILES: CCn1c(C)cc(/C=C2\NC(=O)N(Cc3ccc(Cl)cc3)C2=O)c1C
- EC50 [5]: 0.178 µM (active)
- EC50 [6]: > 30 µM (not active)
- IC50 [7]: 3.37 µM (active)
- AC50 [8]: 1.78 µM (inconclusive)

SMILES: CCS(=O)(=O)Nc1c(C(=O)O)[nH]c2ccccc12
- AC50 [9]: > 100 µM (inactive)
- AC50 [10]: 0.6 µM (active)

SMILES: Cc1ccccc1C(=O)c1cccn1CC(=O)NCCC1=CCCCC1
- EC50 [1]: > 50 µM (active)

SMILES: CSc1cccc(NC(=O)c2cc(S(=O)(=O)N3CCCCC3)c[nH]2)c1
- IC50 [3]: 4.12 µM (active)
- IC50 [4]: 3.45 µM (active)

SMILES: Cn1c(=O)c(=O)n(C)c2cc(S(=O)(=O)N3CCc4ccccc43)ccc21
- EC50 [1]: > 50 µM (active)

SMILES: Nc1nn2cc(-c3ccccc3)nc2c2ccccc12
- EC50 [1]: > 50 µM (active)

SMILES: CC(=O)COC(=O)CCc1nc2ccccc2nc1O
- AC50 [2]: inconclusive

SMILES: Cc1cc2oc(C(=O)NCc3ccncc3)c(C)c2cc1C
- EC50 [1]: > 50 µM (active)

SMILES: Cc1ccc(OCC(=O)Nc2ccc3c(c2)OCO3)c(C)c1
- EC50 [11]: > 12 µM (not active)
- EC50 [12]: < 0.1 µM (active)
- EC50 [13]: 31.7 µM (active)
- EC50 [14]: 1.1 µM (active)
- EC50 [15]: 0.914 µM (active)
